The values that follow come from patent US20070054887A1, “Methods for treating bladder dysfunction” (BioXell S.p.A, priority 2003, published 2007).

Read-outs that look alike come from different tables or passages of the source.

One series relates to human bladder cells. The series is described as follows: inhibition of basal human bladder cell growth. It is filed as cell-based. Particulars: for IC50: Homo sapiens.
Series [1] is described as follows: maximum tolerated dose (MTD) in rats. It is filed as in vivo. An excerpt: The maximum tolerated dose (MTD) in rats is also listed for each compound.

Usually MTD stands for the largest dose that counted as tolerated. With `C=C1C(=CC=C2CCCC3(C)C2CCC3C2(CC#CC(C)(C)O)CC2)CC(OC(C)=O)CC1OC(C)=O` (stereo not shown) [1,3-Di-O-acetyl-1,25-dihydroxy-20-cyclopropyl-23-yne-cholecalciferol], in the series with human bladder cells (basal human bladder cell growth, cells not stimulated with testosterone), the “−Log IC50” value is listed as above 2. Moreover, the MTD in series [1] is 30 µg/kg.

What is called IC50 is the point on the concentration scale where inhibition reaches its midpoint. A low value points to greater potency. With `C=C1/C(=C\C=C2/CCC[C@@]3(C)C2CCC3C(C)CC#CC(C)(C)O)CC(OC(C)=O)C[C@@H]1OC(C)=O` (stereo partly shown) [1,3-Di-O-acetyl-1,25-dihydroxy-23-yne-cholecalciferol], the IC50 in the series on human bladder cells was below 10000 µM. Also, in series [1] (rat, in vivo, read-out: MTD), the MTD is 1 µg/kg.

In the case of `C=C1/C(=C\C=C2/CCC[C@]3(C)C(C4(C/C=C/C(O)(C(F)(F)F)C(F)(F)F)CC4)=CCC23)CC(O)C[C@@H]1O` (stereo partly drawn) [1α,25-Dihydroxy-16-ene-20-cyclopropyl-23,24-E-ene-26,27-hexafluoro-cholecalciferol], in the series on human bladder cells, the IC50 was 1.58e-05 µM. In addition, the MTD in series [1] (rat, in vivo, read-out: MTD) is 0.3 µg/kg.

As to `CC(=O)OC1C/C(=C/C=C2\CCC[C@]3(C)C(C(C)CC#CC(C)(C)O)=CCC23)C[C@@H](OC(C)=O)C1` (stereo partly shown) [1,3-Di-O-Acetyl-1,25-dihydroxy-16-ene-23-yne-19-nor-cholecalciferol], the IC50 in the series with human bladder cells was 186 µM. Besides, in series [1] (rat, in vivo, read-out: MTD), the MTD was determined as 30 µg/kg.

In the series on human bladder cells, `C=C1/C(=C\C=C2/CCC[C@@]3(C)C2CCC3C2(CCCC(C)(C)O)CC2)CC(OC(C)=O)C[C@@H]1OC(C)=O` (stereo partly shown) [1,3-Di-O-acetyl-1,25-dihydroxy-20-cyclopropyl-cholecalciferol] had an IC50 of 0.398 µM. Moreover, the maximal tolerated dose (MTD) in series [1] (rat, in vivo, read-out: MTD) stood at 30 µg/kg.

In the series with human bladder cells, `CC(=O)O[C@@H]1CC(=C/C=C2\CCC[C@]3(C)C([C@H](C)CCC(=O)C(C)(C)O)=CCC23)C[C@@H](OC(C)=O)C1` (stereo partly shown) [1,3-O-Diacetyl-1,25-Dihydroxy-16-ene-24-Keto-19-nor-Cholecalciferol] showed an IC50 of 0.617 µM. In addition, in series [1] (rat, in vivo, read-out: MTD), the MTD was determined as 300 µg/kg.

Compound `CC(C)(O)CCCC(CCCC(C)(C)O)[C@H]1CC[C@H]2/C(=C/C=C3C[C@@H](O)C[C@H](O)C3)CCC[C@]12C` [1,25-dihydroxy-21-(3-hydroxy-3-methylbutyl)-19-nor-cholecalciferol] had an IC50 with human bladder cells of 9.77 µM.

In the series with human bladder cells, `CC(=O)OC1C/C(=C/C=C2\CCC[C@@]3(C)C2CCC3C2(C/C=C\C(O)(C(F)(F)F)C(F)(F)F)CC2)C[C@@H](OC(C)=O)C1` (stereo partly shown) [1,3-Di-O-acetyl-1,25-dihydroxy-20-cyclopropyl-23Z-ene-26,27-hexafluoro-19-nor-cholecalciferol] showed an IC50 of 0.2 µM. Besides, the MTD in series [1] (rat, in vivo, read-out: MTD) came to 10 µg/kg.

Take `C=C1/C(=C\C=C2/CCC[C@]3(C)C(C4(CCCC(C)(C)O)CC4)=CCC23)CC(O)C[C@@H]1O` (stereo partly drawn) [1α,25-Dihydroxy-16-ene-20-cyclopropyl-cholecalciferol]: the IC50 in the series with human bladder cells was 0.017 µM. Also, the MTD in series [1] (rat, in vivo, read-out: MTD) amounted to 1 µg/kg.

Regarding `C=C1/C(=C\C=C2/CCC[C@]3(C)C(C4(C/C=C\C(O)(C(F)(F)F)C(F)(F)F)CC4)=CCC23)CC(O)C[C@@H]1O` (stereo partly drawn) [1α,25-Dihydroxy-16-ene-20-cyclopropyl-23,24-Z-ene-26,27-hexafluoro-cholecalciferol], the IC50 in the series on human bladder cells is 0.0794 µM. In addition, the MTD in series [1] (rat, in vivo, read-out: MTD) was 1 µg/kg.

Consider `C=C1/C(=C\C=C2/CCC[C@]3(C)C(C(C)C/C=C/C(C)(C)O)=CCC23)CC(OC(C)=O)C[C@@H]1OC(C)=O` (stereo partly shown) [1,3-Di-O-acetyl-1,25-dihydroxy-16,23E-diene-cholecalciferol], for which the IC50 with human bladder cells was 4.17e-06 µM. Moreover, in series [1] (rat, in vivo, read-out: MTD), the MTD was 3 µg/kg.

With `C=C1/C(=C\C=C2/CCC[C@]3(C)C(C(C)CCCC(C)(C)O)=CCC23)CC(OC(C)=O)C[C@@H]1OC(C)=O` (stereo partly shown) [1,3-Di-O-acetyl-1,25-dihydroxy-16-ene-cholecalciferol], the midpoint of inhibition with human bladder cells, the IC50, lay at 0.000224 µM. The MTD in series [1] (rat, in vivo, read-out: MTD) came to 1 µg/kg.

The compound `C=C1/C(=C\C=C2/CCC[C@]3(C)C(C(C)CC#CC(C)(C)O)=CCC23)CC(OC(C)=O)C[C@@H]1OC(C)=O` (stereo partly shown) [1,3-Di-O-acetyl-1,25-dihydroxy-16-ene-23-yne-cholecalciferol] had an IC50 in the series on human bladder cells of 5.01e-05 µM. In series [1] (rat, in vivo, read-out: MTD), the MTD came to 10 µg/kg.
